Reference: patent EP0475392B1, “Herbicidal composition” (ISHIHARA SANGYO KAISHA, Ltd., priority 1990, dated 1992)
Structures can show the parent of a compound that is named as a salt.

System: Digitaria sanguinalis
Experiment: Test Example 1 (Foliage Treatment Test), herbicidal effect by visual observation
Type: in vivo
Details: foliar application at six-leaf stage, 27 days after treatment
Text: Upland soil was placed in 1/10,000-are (are (a) = 100 m²) pots and sown with Digitaria sanguinalis. When the plants reached the six-leaf stage, a predetermined amount of each herbicidal composition which had been diluted with 10 ℓ, per are, of water and further admixed with 0.2 % (v/v) of a spreader (Shin Rino®: manufactured by Nihon Nohyaku Co., Ltd.) was foliarly applied on the plants using a small spray gun. 27 days after the foliage treatment application, the herbicidal effect of the herbicidal composition was examined through visual observation according to the following evaluation criteria.

Row | SMILES | Rating (0.25 g/a active ingredient) | Rating (0.5 g/a active ingredient) | Rating (1 g/a active ingredient) | Rating (2.5 g/a active ingredient) | Rating (5 g/a active ingredient)
1 | COc1cc(OC)nc(NC(=O)NS(=O)(=O)c2ncccc2C(F)(F)F)n1 [Compound A, 1-(4,6-dimethoxy-pyrimidin-2-yl)-3-(3-trifluoromethyl-2-pyridylsulfonyl)urea] | 2 (20 to 29) | 3 (30 to 39) | 3 (30 to 39) | – | –
2 | O=C(O)CNCP(=O)(O)O [Isopropylamine salt of Compound B, isopropylamine salt of N-(phosphonomethyl)glycine, reference compound] | – | – | – | 4 (40 to 49) | 6 (60 to 69)
